Here are results for 34 molecules from patent publication US6544987B2, “Compounds, compositions, and methods for stimulating neuronal growth and elongation” (Pfizer Inc., priority 1999, dated 2003).

pKi: −log10 of the molar value. Several values for one entry are separate records, joined by “and”; a condition that tells them apart may be missing. Identical values can stand only once.

Sequence of FKBP12 (P62942 whole entry, species assumed): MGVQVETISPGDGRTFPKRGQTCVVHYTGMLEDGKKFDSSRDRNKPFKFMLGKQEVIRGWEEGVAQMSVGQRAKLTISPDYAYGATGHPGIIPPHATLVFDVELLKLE

For the first assay, the target named is FKBP12 (Homo sapiens, UniProt P62942). Description: Affinity for FKBP-12 (Ki), succinyl-Ala-Leu-Pro-Phe-pNA chymotrypsin-coupled assay. It is filed as biochemical. More on the design: key to FKBP12 inhibition (in Kiapps column): NI: no inhibition; NSI: no significant inhibition. The conditions noted are these: @ 20. The protocol:
In a quartz cuvette, a final 1 mL buffer concentration was reached (50 mM Hepes, 100 mM NaCl, pH 8.0). Within this final reaction volume, 3.5 μL […] FKBP-12 (in 50 mM Hepes, 100 mM NaCl, pH 8.0) and 10 μL test compound in DMSO were added. The reaction was initiated by adding 10 μL chymotrypsin (100 mg/mL in 1 mM HCl) followed by 5 μL (1-20 mM succinyl-Ala-Leu-Pro-Phe-pNA in 240 mM LiCl/TFE).
The absorbance at 390 nm versus time was monitored for up to 400 seconds. Rate constants were determined from the absorbance versus time plots generated.
Turning to `O=C(OCCCCc1ccccc1)[C@@H]1CCCCN1S(=O)(=O)N(O)c1ccccc1` [Compound 99, (S)-1-(Hydroxy-phenyl-sulfamoyl)-piperidine-2-carboxylic acid 4-phenyl-butyl ester], the “FKBP12 inhibition (in Kiapps column)” value is reported as “NI @ 20”. Still for that read-out and setting: the result for `O=C(O)[C@@H]1CCCN1S(=O)(=O)Nc1cccnc1` [Compound 116, (S)-1-(Pyridin-3-ylsulfamoyl)-pyrrolidine-2-carboxylic acid] reads “NSI @ 20”; that for `O=C1[C@@H]2CCCN2S(=O)(=O)N1c1cccnc1` [Compound 117, (S)-1,1-Dioxo-2-pyridin-3-yl-hexahydro-1λ^6-thia-2,6a-diaza-pentalen-3-one], “NSI @ 20”.

The assay is the same for the next values; noted with them: Table 2; read-out: FKBP12 Kiapps.
`O=C(OCCCCc1ccccc1)C1CSCCN1S(=O)(=O)Nc1ccccc1` (stereo not shown) [Compound 69, 4-Phenylsulfamoyl-thiomorpholine-3-carboxylic acid 4-phenyl-butyl ester]: the pKi was 5.28.

Regarding `O=C(OCCCCc1ccccc1)C1CSCCN1S(=O)(=O)Nc1ccc2[nH]c(=O)[nH]c2c1` (stereo not shown) [Compound 70, 4-(2-Oxo-2,3-dihydro-1H-benzoimidazol-5-ylsulfamoyl)-thiomorpholine-3-carboxylic acid 4-phenyl-butyl ester], the pKi was 6.02. As for `CN(C)S(=O)(=O)N1CCCC[C@H]1c1nnc(Cc2ccccc2)o1` [Compound 75, 2S-(5-Benzyl-[1,3,4]oxadiazol-2-yl)-piperidine-1-sulfonic acid dimethylamide], the pKi was 3.97. Same read-out and setting: the result for `O=S(=O)(Nc1ccccc1)N1CCCC[C@H]1c1nnc(Cc2ccccc2)o1` [Compound 76, 2S-(5-Benzyl-[1,3,4]oxadiazol-2-yl)-piperidine-1-sulfonic acid phenylamide] reads 5.89; that for `COc1ccc(N(C)S(=O)(=O)N2CCCC[C@H]2c2nnc(Cc3ccccc3)o2)cc1` [Compound 77, 2-(5-Benzyl-[1,3,4]oxadiazol-2-yl)-piperidine-1-sulfonic acid (4-methoxy-phenyl)-methyl-amide], 4.17; that for `COc1cc(NS(=O)(=O)N2CCCC[C@H]2c2nnc(Cc3ccccc3)o2)cc(OC)c1OC` [Compound 78, 2-(5-Benzyl-[1,3,4]oxadiazol-2-yl)-piperidine-1-sulfonic acid (3,4,5-trimethoxy-phenyl)-amide], 5.28. Same read-out and setting: the result for `COc1cc(NS(=O)(=O)N2[C@H]3CC[C@H](C3)[C@H]2C(=O)OCCCCc2ccccc2)cc(OC)c1OC` [Compound 85, 2-(3,4,5-Trimethoxy-phenylsulfamoyl)-2-aza-bicyclo[2.2.1]heptane-endo-3-carboxylic acid 4-phenyl-butyl ester] reads 5.80; that for `O=C(OCc1ccccc1)[C@@H]1CCCCN1S(=O)(=O)Nc1ccc(N2CCOCC2)nc1` [Compound 86, (S)-1-(6-Morpholin-4-yl-pyridin-3-ylsulfamoyl)-piperidine-2-carboxylic acid Benzyl ester], 5.75 and 5.93. The same measure, in the same setting: the result for `COc1ccc(NS(=O)(=O)N2CCCC[C@H]2C(=O)OCc2ccccc2)cn1` [Compound 87, 1-(6-Methoxy-pyridin-3-ylsulfamoyl)-piperidine-2S-carboxylic acid Benzyl ester] reads 6.12; that for `C[C@@H]1CN(S(=O)(=O)N2CCCC[C@H]2C(=O)OCc2ccccc2)C[C@H](C)O1` [Compound 88, (S)-1-(cis-2,6-Dimethyl-morpholine-4-sulfonyl)-piperidine-2-carboxylic acid benzyl ester], 6.08; that for `COC(=O)[C@@H]1CCCCN1S(=O)(=O)Nc1cc(OC)c(OC)c(OC)c1` [Compound 90, (S)-1-(3,4,5-Trimethoxy-phenylsulfamoyl)-piperidine-2-carboxylic acid Methyl ester], 5.16. As to `COc1cc(NS(=O)(=O)N2CCCC[C@H]2C(=O)NCCCN2CCCCC2)cc(OC)c1OC` [Compound 91, (S)-1-(3,4,5-Trimethoxy-phenylsulfamoyl)-piperidine-2-carboxylic acid (3-piperidin-1-yl-propyl)-amide], the pKi was 5.89. Consider `COc1cc(NS(=O)(=O)N2CCCC[C@H]2C(=O)NCCCc2cccnc2)cc(OC)c1OC` [Compound 93, (S)-1-(3,4,5-Trimethoxy-phenylsulfamoyl)-piperidine-2-carboxylic acid (3-pyridin-3-yl-propyl)-amide], for which the pKi was 6.70. Still for that read-out and setting: the result for `O=C(OCCCCc1ccccc1)[C@@H]1CCCCN1S(=O)(=O)Nc1ccc(N2CCOCC2)nc1` [Compound 94, (S)-1-(6-Morpholin-4-yl-pyridin-3-ylsulfamoyl)-piperidine-2-carboxylic acid 4-phenyl-butyl ester] reads 6.68; that for `O=C(OCCCCc1ccccc1)[C@@H]1CCCCN1S(=O)(=O)Nc1cc(F)c(F)c(F)c1` [Compound 95, (S)-1-(3,4,5-Trifluoro-phenylsulfamoyl)-piperidine-2-carboxylic acid 4-phenyl-butyl ester], 6.36. On the same count and under the same terms, the result for `O=C(OCCCCc1ccccc1)[C@@H]1CCCCN1S(=O)(=O)Nc1ccc(C(F)(F)F)nc1` [Compound 96, (S)-1-(6-Trifluoromethyl-pyridin-3-ylsulfamoyl)-piperidine-2-carboxylic acid 4-phenyl-butyl ester] reads 6.36; that for `O=C(OCCCCc1ccccc1)[C@@H]1CCCCN1S(=O)(=O)Nc1cccnc1` [Compound 97, (S)-1-(Pyridin-3-ylsulfamoyl)-piperidine-2-carboxylic acid 4-phenylbutyl ester], 7.14; that for `COc1cccc(NS(=O)(=O)N2CCCC[C@H]2C(=O)OCCCCc2ccccc2)c1` [Compound 98], 6.66. On the same count and under the same terms, the result for `COc1cc(NS(=O)(=O)N2CCCC[C@H]2C(=O)OC(COCc2ccccc2)COCc2ccccc2)cc(OC)c1OC` [Compound 102, (S)-1-(3,4,5-Trimethoxy-phenylsulfamoyl)-piperidine-2-carboxylic acid 2-benzyloxy-1-benzyloxymethyl-ethyl ester] reads 6.77; that for `COc1ccc(NS(=O)(=O)N2CCCC[C@H]2C(=O)OC(COCc2ccccc2)COCc2ccccc2)cn1` [Compound 103, (S)-1-(6-Methoxy-pyridin-3-ylsulfamoyl)-piperidine-2-carboxylic acid 2-benzyloxy-1-benzyloxymethyl-ethyl ester], 7.41; that for `COc1cc(NS(=O)(=O)N2CCCC[C@H]2C(=O)OC(COCc2ccccc2)COCc2ccccc2)c(OC)cc1Cl` [Compound 104, (S)-1-(4-Chloro-2,5-dimethoxy-phenylsulfamoyl)-piperidine-2-carboxylic acid 2-benzyloxy-1-benzyloxymethyl-ethyl ester], 5.15.

On to `O=C(OC(COCc1ccccc1)COCc1ccccc1)[C@@H]1CCCCN1S(=O)(=O)Nc1cccnc1` [Compound 105, (S)-1-(Pyridin-3-ylsulfamoyl)-piperidine-2-carboxylic acid 2-benzyloxy-1-benzyloxymethyl-ethyl ester], for which the pKi is 7.48.

As to `O=C(OC(COCc1ccccc1)COCc1ccccc1)[C@@H]1CCCCN1S(=O)(=O)Nc1ccc(N2CCOCC2)nc1` [Compound 106, (S)-1-(6-Morpholin-4-yl-pyridin-3-ylsulfamoyl)-piperidine-2-carboxylic acid 2-benzyloxy-1-benzyloxymethyl-ethyl ester], the pKi was 6.94. On to `Cc1ccc(NS(=O)(=O)N2CCCC[C@H]2C(=O)OC(COCc2ccccc2)COCc2ccccc2)cn1` [Compound 107, (S)-1-(6-Methyl-pyridin-3-ylsulfamoyl)-piperidine-2-carboxylic acid 2-benzyloxy-1-benzyloxymethyl-ethyl ester], for which the pKi was 7.06. Same read-out and setting: the result for `O=C(OC(COCc1ccccc1)COCc1ccccc1)[C@@H]1CCCCN1S(=O)(=O)Nc1cnc(N2CCOCC2)c(C(F)(F)F)c1` [Compound 108, (S)-1-(Morpholin-4-yl-trifluoromethyl-pyridin-3-ylsulfamoyl)-piperidine-2-carboxylic acid 2-benzyloxy-1-benzyloxymethyl-ethyl ester] reads 6.90; that for `COc1cc(NS(=O)(=O)N2CCCC[C@H]2C(=O)N[C@H](COCc2cccnc2)C(C)C)cc(OC)c1OC` [Compound 112, (S)-1-(3,4,5-Trimethoxy-phenylsulfamoyl)-piperidine-2-carboxylic acid [(S)-2-methyl-1-(pyridin-3-ylmethoxymethyl)-propyl]-amide], 7.39; that for `CCC(C)(C)NS(=O)(=O)N1CCC[C@H]1COC(=O)N(CCc1ccccc1)Cc1ccccc1` [Compound 113, Benzyl-phenethyl-carbamic acid (S)-1-(dimethyl-propylsulfamoyl)-pyrrolidin-2-ylmethyl ester], 4.48. Same read-out and setting: the result for `CCC(C)(C)NS(=O)(=O)N1CCC[C@H]1C(=O)NCCCc1cccnc1` [Compound 114, (S)-1-(1,1-Dimethyl-propylsulfamoyl)-pyrrolidine-2-carboxylic acid (3-pyridin-3-yl-propyl)-amide] reads 5.95.

Turning to `O=C(OCc1ccccc1)[C@@H]1CCCN1S(=O)(=O)Nc1cccnc1` [Compound 115, (S)-1-(Pyridin-3-ylsulfamoyl)-pyrrolidine-2-carboxylic acid benzyl ester], the pKi is 4.69. Still for that read-out and setting: the result for `O=C(NCCCc1ccccc1)[C@@H]1CCCN1S(=O)(=O)Nc1cccnc1` [Compound 118, (S)-1-(Pyridin-3-ylsulfamoyl)-pyrrolidine-2-carboxylic acid (3-phenyl-propyl)-amide] reads 4.77; that for `COc1cc(NS(=O)(=O)N2CCCC[C@H]2C(=O)CCCCCc2ccccc2)cc(OC)c1OC` [Compound 119, (S)-2-(6-Phenyl-hexanoyl)-piperidine-1-sulfonic acid (3,4,5-trimethoxy-phenyl)-amide], 5.89.
